Test system: STZ induced diabetic nephropathy in rats
Experiment: Study 4: HCQ and its combination with Losartan, Telmisartan, Azilsartan and Ramipril, with Glimepiride control
Format: in vivo, Wistar rats
Conditions: for HDL / TC / TG / GSH / TBARS / Total protein kidney / Creatinine / Total protein / Urea: after 8th week; for Glucose Day1 / Glucose Day14 / Glucose Day28 / Glucose Day42 / Glucose Day56: blood; for GSH / TBARS / Total protein kidney: kidney homogenate; for Creatinine / Total protein / Urea: serum
Experimental: The methods described in Terri et al, Diabetes Volume, 1997, 46:1612-1618, and Takashi et al, Jpn J. Pharmacol, 1997, 75, 59-64, were followed for inducing Diabetes in rats by injecting Streptozotocin. The Efficacy of the drugs was tested in two different models, one involving comparison with diabetic control (i.e. Diabetic Rats not treated with any medication) and the other involving comparison with the anti-diabetic control group (i.e. Diabetic rats administered Glimepiride) in two separate studies.
Wistar rats of either sex weighing 150-200 g were divided randomly into 28 groups consisting of 6 animals each. Diabetes was induced in rats by single administration of streptozotocin (55 mg/kg/i.p) dissolved in 0.1 M-citrate buffer, pH 4.5. Group 1 (normal control) consisted of normal rats that neither received streptozotocin nor any test drug; Group 2 served as Diabetic control; Group 3 was diabetic rats treated with Hydroxychloroquine (35 mg/kg); Group 4 was diabetic rats treated with Hydroxychloroquine (45 mg/kg) and Group 5 was diabetic rats treated with Hydroxychloroquine (70 mg/kg); Group 6 was diabetic rats treated with Losartan (5.5 mg/kg); Group 7 was diabetic rats treated with Losartan (11 mg/kg); Group 8 was diabetic rats treated with combination of Losartan (5.5 mg/kg) and Hydroxychloroquine (45 mg/kg); Group 9 was diabetic rats treated with combination of Losartan (11 mg/kg) and Hydroxychloroquine (35 mg/kg); Group 10 was diabetic rats treated with Ramipril (0.6 mg/kg); Group 11 was diabetic rats treated with Ramipril (0.3 mg/kg); Group 12 was diabetic rats treated with combination of Ramipril (0.6 mg/kg) and Hydroxychloroquine (35 mg/kg); Group 13 was diabetic rats treated with combination of Ramipril (0.3 mg/kg) and Hydroxychloroquine (45 mg/kg); Group 14 was diabetic rats treated with combination of Ramipril (0.6 mg/kg) and Hydroxychloroquine (45 mg/kg); Group 15 was diabetic rats treated with combination of Ramipril (0.3 mg/kg) and Hydroxychloroquine (35 mg/kg); Group 16 was diabetic rats treated with Telmisartan (9.5 mg/kg); Group 17 was diabetic rats treated with Telmisartan (4.5 mg/kg); Group 18 was diabetic rats treated with combination of Telmisartan (9.5 mg/kg) and Hydroxychloroquine (35 mg/kg); Group 19 was diabetic rats treated with combination of Telmisartan (4.5 mg/kg) and Hydroxychloroquine (45 mg/kg); Group 20 was diabetic rats treated with combination of Telmisartan (9.5 mg/kg) and Hydroxychloroquine (45 mg/kg); Group 21 was diabetic rats treated with combination of Telmisartan (4.5 mg/kg) and Hydroxychloroquine (35 mg/kg); Group 22 was diabetic rats treated with Azilsartan (4.5 mg/kg); Group 23 was diabetic rats treated with Azilsartan (2.5 mg/kg); Group 24 was diabetic rats treated with combination of Azilsartan (4.5 mg/kg) and Hydroxychloroquine (35 mg/kg); Group 25 was diabetic rats treated with combination of Azilsartan (2.5 mg/kg) and Hydroxychloroquine (45 mg/kg); Group 26 was diabetic rats treated with combination of Azilsartan (4.5 mg/kg) and Hydroxychloroquine (45 mg/kg); Group 27 was diabetic rats treated with combination of Azilsartan (2.5 mg/kg) and Hydroxychloroquine (35 mg/kg); Group 28 served as Anti-Diabetic control wherein diabetic rats were treated with antidiabetic drug Glimepiride (GLM) (1 mg/kg).
The study drugs were dissolved/suspended in vehicle and administered orally once a day for eight weeks. The diabetes mellitus induced nephropathy was assessed by estimating the level of serum urea, serum creatinine and total serum protein content after completion of eighth week of study. TBARS, GSH and Total Protein were measured as markers of renal oxidative stress in Kidney Homogenate after completion of eighth week of study. Blood glucose levels were also assessed at weekly interval.

[1] = dose mg/kg: HCQ 35, LT 5.5, RM 0.3, TL 4.5, AZ 2.5, alone or combined with HCQ 35
[2] = dose mg/kg: HCQ 45, LT 11, RM 0.6, TL 9.5, AZ 4.5, alone or combined with HCQ 45

`CCN(CCO)CCCC(C)Nc1ccnc2cc(Cl)ccc12` (centres unmarked) [Hydroxychloroquine, 2-[{4-[(7-chloroquinolin-4-yl)amino]pentyl}(ethyl)amino]ethanol] gave an HDL [1] of 29.5 ± 2.17 mg/dL, a TC [1] of 133.5 ± 3.62 mg/dL and a TG [1] of 94.83 ± 2.48 mg/dL. For the same compound, the HDL [2] was 29 ± 2.19 mg/dL, the TC [2] was 130.33 ± 2.07 mg/dL and the TG [2] was 96.83 ± 2.93 mg/dL. The HDL (dose mg/kg: HCQ 70, GLM 1) was 30.67 ± 1.86 mg/dL, the TC (dose mg/kg: HCQ 70, GLM 1) was 124.67 ± 2.94 mg/dL and the TG (dose mg/kg: HCQ 70, GLM 1) was 90.17 ± 3.49 mg/dL. The “Glucose Day1” value [1] was 268.83 ± 17.77 mg/dL, the “Glucose Day1” value [2] was 277.5 ± 17.74 mg/dL and the “Glucose Day1” value (dose mg/kg: HCQ 70, GLM 1) was 274.5 ± 16.01 mg/dL. For the same compound, the “Glucose Day14” value [1] was 203.33 ± 28.11 mg/dL, the “Glucose Day14” value [2] was 229.17 ± 10.38 mg/dL and the “Glucose Day14” value (dose mg/kg: HCQ 70, GLM 1) was 209.67 ± 21.69 mg/dL. The “Glucose Day28” value [1] was 176.83 ± 29.1 mg/dL, the “Glucose Day28” value [2] was 184.17 ± 14.5 mg/dL and the “Glucose Day28” value (dose mg/kg: HCQ 70, GLM 1) was 169.5 ± 10.48 mg/dL. The “Glucose Day42” value [1] was 165 ± 13.61 mg/dL, the “Glucose Day42” value [2] was 154.17 ± 9.13 mg/dL and the “Glucose Day42” value (dose mg/kg: HCQ 70, GLM 1) was 148.67 ± 8.5 mg/dL. For the same compound, the “Glucose Day56” value [1] was 151.5 ± 7.42 mg/dL, the “Glucose Day56” value [2] was 140 ± 7.56 mg/dL and the “Glucose Day56” value (dose mg/kg: HCQ 70, GLM 1) was 130.83 ± 7.22 mg/dL. For the same compound, the GSH [1] was 0.71 ± 0.16 nM/mg, the TBARS [1] was 0.67 ± 0.11 nM/mg and the Total protein kidney [1] was 865.33 ± 27.9 µg/mL. The GSH [2] was 0.7 ± 0.17 nM/mg, the TBARS [2] was 0.65 ± 0.13 nM/mg and the Total protein kidney [2] was 831.67 ± 24.15 µg/mL. The GSH (dose mg/kg: HCQ 70, GLM 1) was 0.67 ± 0.19 nM/mg, the TBARS (dose mg/kg: HCQ 70, GLM 1) was 0.63 ± 0.12 nM/mg and the Total protein kidney (dose mg/kg: HCQ 70, GLM 1) was 752.33 ± 18.8 µg/mL. It also gave a Creatinine [1] of 3.11 ± 0.16 mg/dL, a Total protein [1] of 4.52 ± 0.39 g/dL and a Urea [1] of 44.33 ± 1.75 mg/dL. For the same compound, the Creatinine [2] was 2.99 ± 0.34 mg/dL, the Total protein [2] was 5.4 ± 0.36 g/dL and the Urea [2] was 40.83 ± 2.14 mg/dL. For the same compound, the Creatinine (dose mg/kg: HCQ 70, GLM 1) was 2.68 ± 0.23 mg/dL, the Total protein (dose mg/kg: HCQ 70, GLM 1) was 5.72 ± 0.3 g/dL and the Urea (dose mg/kg: HCQ 70, GLM 1) was 38.17 ± 1.47 mg/dL.

Work on `CCCc1nc2c(C)cc(-c3nc4ccccc4n3C)cc2n1Cc1ccc(-c2ccccc2C(=O)O)cc1` [Telmisartan] yielded an HDL [1] of 26 ± 1.67 mg/dL, a TC [1] of 138.67 ± 3.93 mg/dL and a TG [1] of 100.33 ± 5.57 mg/dL. The HDL [2] was 26.83 ± 1.47 mg/dL, the TC [2] was 141.5 ± 2.88 mg/dL and the TG [2] was 97.67 ± 6.09 mg/dL. The “Glucose Day1” value [1] was 281.83 ± 12.46 mg/dL, the “Glucose Day1” value [2] was 275.33 ± 15.45 mg/dL and the “Glucose Day14” value [1] was 221.83 ± 12.37 mg/dL. For the same compound, the “Glucose Day14” value [2] was 221.5 ± 16.02 mg/dL, the “Glucose Day28” value [1] was 181.83 ± 5.04 mg/dL and the “Glucose Day28” value [2] was 184.33 ± 8.31 mg/dL. The “Glucose Day42” value [1] was 162 ± 9.21 mg/dL, the “Glucose Day42” value [2] was 159.83 ± 7.03 mg/dL and the “Glucose Day56” value [1] was 139 ± 7.85 mg/dL. For the same compound, the “Glucose Day56” value [2] was 141 ± 7.07 mg/dL, the GSH [1] was 0.86 ± 0.06 nM/mg and the TBARS [1] was 0.65 ± 0.15 nM/mg. It also gave a Total protein kidney [1] of 879.17 ± 29.41 µg/mL, a GSH [2] of 0.96 ± 0.11 nM/mg and a TBARS [2] of 0.54 ± 0.14 nM/mg. It also gave a Total protein kidney [2] of 864.5 ± 25.65 µg/mL, a Creatinine [1] of 3.68 ± 0.31 mg/dL and a Total protein [1] of 4.93 ± 0.23 g/dL. The Urea [1] was 42.67 ± 2.5 mg/dL, the Creatinine [2] was 3.91 ± 0.15 mg/dL and the Total protein [2] was 4.61 ± 0.18 g/dL. The Urea [2] was 41.5 ± 2.35 mg/dL.

`CCOc1nc2cccc(C(=O)O)c2n1Cc1ccc(-c2ccccc2-c2nc(=O)o[nH]2)cc1` [Azilsartan] was tested, and the HDL [1] was 27.17 ± 1.17 mg/dL, the TC [1] was 142 ± 2.1 mg/dL and the TG [1] was 97 ± 5.66 mg/dL. For the same compound, the HDL [2] was 26.67 ± 1.51 mg/dL, the TC [2] was 141.17 ± 2.32 mg/dL and the TG [2] was 103 ± 3.9 mg/dL. The “Glucose Day1” value [1] was 267.17 ± 12.21 mg/dL, the “Glucose Day1” value [2] was 278.5 ± 14.22 mg/dL and the “Glucose Day14” value [1] was 215.5 ± 14.01 mg/dL. For the same compound, the “Glucose Day14” value [2] was 224.17 ± 17.93 mg/dL, the “Glucose Day28” value [1] was 180 ± 8.00 mg/dL and the “Glucose Day28” value [2] was 179 ± 7.13 mg/dL. The “Glucose Day42” value [1] was 160.67 ± 6.12 mg/dL, the “Glucose Day42” value [2] was 158.67 ± 6.77 mg/dL and the “Glucose Day56” value [1] was 141 ± 6.924 mg/dL. For the same compound, the “Glucose Day56” value [2] was 139.83 ± 4.79 mg/dL, the GSH [1] was 0.86 ± 0.21 nM/mg and the TBARS [1] was 0.6 ± 0.11 nM/mg. For the same compound, the Total protein kidney [1] was 874.5 ± 21.80 µg/mL, the GSH [2] was 1.26 ± 0.44 nM/mg and the TBARS [2] was 0.58 ± 0.14 nM/mg. It also gave a Total protein kidney [2] of 837.5 ± 20.15 µg/mL, a Creatinine [1] of 3.61 ± 0.16 mg/dL and a Total protein [1] of 4.76 ± 0.15 g/dL. For the same compound, the Urea [1] was 40.83 ± 2.64 mg/dL, the Creatinine [2] was 3.44 ± 0.28 mg/dL and the Total protein [2] was 4.99 ± 0.25 g/dL. The Urea [2] was 41 ± 3.58 mg/dL.

— patent US20160030415A1, “TREATMENT AND PROPHYLAXIS OF KIDNEY DISEASES” (priority 2013, published 2016)
